Data on five compounds can be found in ChEMBL document CHEMBL3352194, “The discovery of benzenesulfonamide-based potent and selective inhibitors of voltage-gated sodium channel Na(v)1.7” (Bioorg Med Chem Lett, 2014).

The IC50 is the concentration needed to halve the response being measured. As usually defined, the inhibition is the share of the control response that was lost under treatment. Low readings indicate little suppression, high ones strong suppression.

In data set [1] the target is T1, Cytochrome P450 2C19 (Homo sapiens, UniProt P33261). As to the kind of experiment: (§1) Inhibition of CYP2C19 (unknown origin) using omeprazole substrate at 10 uM. It is filed as ADME. Particulars: 10 µM.
The target of data set [2] is T2, Cytochrome P450 3A4 (Homo sapiens, UniProt P08684). The experiment in a line: (§2) Inhibition of CYP3A4 (unknown origin) using midazolam substrate at 10 uM. It is filed as ADME. The settings on record: 10 µM.
For data set [3], the target named is Sodium channel protein type 9 subunit alpha (Homo sapiens, UniProt Q15858). The experiment in a line: Inhibition of human Nav1.7 expressed in HEK cells assessed as reduction in sodium current at -60 mV holding potential by PatchXpress platform based whole cell patch clamp electrophysiological assay. Details: species or system HEK293.
The target of data set [4] is T3, Cytochrome P450 2D6 (Homo sapiens, UniProt P10635). As to the kind of experiment: (§3) Inhibition of CYP2D6 (unknown origin) using bufuralol substrate at 10 uM. Particulars: 10 µM. It is filed as ADME.
In data set [5] the target is T4, Cytochrome P450 2C9 (Homo sapiens, UniProt P11712). As to the kind of experiment: (§4) Inhibition of CYP2C9 (unknown origin) using diclofenac substrate at 10 uM. The settings on record: 10 µM. It is filed as ADME.
Data set [6] has as its target Sodium channel protein type 5 subunit alpha (Homo sapiens, UniProt Q14524). The experiment in a line: Inhibition of human Nav1.5 expressed in HEK cells assessed as reduction in sodium current at -60 mV holding potential by PatchXpress platform based whole cell patch clamp electrophysiological assay. More on the design: species or system HEK293. A general note: Patch clamp records ionic current or voltage across a cell membrane.

For data set [7], the target named is T1, Cytochrome P450 2C19. The experiment in a line: Inhibition of CYP2C19 (unknown origin) using omeprazole substrate. Type of data set: ADME.
In data set [8] the target is T3, Cytochrome P450 2D6. As to the kind of experiment: Inhibition of CYP2D6 (unknown origin) using bufuralol substrate. It is filed as ADME.
The target in data set [9] is T4, Cytochrome P450 2C9. The experiment in a line: Inhibition of CYP2C9 (unknown origin) using diclofenac substrate. Type of data set: ADME.
Data set [10] addresses T2, Cytochrome P450 3A4. As to the kind of experiment: Inhibition of CYP3A4 (unknown origin) using midazolam substrate. Type of data set: ADME.
The next data set addresses CYP2C9 (Homo sapiens, UniProt P11712). Described as §4. The settings on record: probe diclofenac. It is filed as ADME.
The target in a further data set is CYP2C19 (Homo sapiens, UniProt P33261). The description is as §1. It is filed as ADME. Particulars: probe omeprazole.
The species named for the next data set is Homo sapiens. As to the kind of experiment: Selectivity index, ratio of IC50 for human Nav1.5 to IC50 for human Nav1.7.
For the next data set, the target named is CYP3A4 (Homo sapiens, UniProt P08684). Described as §2. It is filed as ADME. Particulars: probe midazolam.
A further data set addresses CYP2D6 (Homo sapiens, UniProt P10635). The data set is described as §3. The settings on record: probe bufuralol. It is filed as ADME.

SMILES strings stand for the structures.

Sodium channel protein type 9 subunit alpha, sequence (Q15858 whole entry): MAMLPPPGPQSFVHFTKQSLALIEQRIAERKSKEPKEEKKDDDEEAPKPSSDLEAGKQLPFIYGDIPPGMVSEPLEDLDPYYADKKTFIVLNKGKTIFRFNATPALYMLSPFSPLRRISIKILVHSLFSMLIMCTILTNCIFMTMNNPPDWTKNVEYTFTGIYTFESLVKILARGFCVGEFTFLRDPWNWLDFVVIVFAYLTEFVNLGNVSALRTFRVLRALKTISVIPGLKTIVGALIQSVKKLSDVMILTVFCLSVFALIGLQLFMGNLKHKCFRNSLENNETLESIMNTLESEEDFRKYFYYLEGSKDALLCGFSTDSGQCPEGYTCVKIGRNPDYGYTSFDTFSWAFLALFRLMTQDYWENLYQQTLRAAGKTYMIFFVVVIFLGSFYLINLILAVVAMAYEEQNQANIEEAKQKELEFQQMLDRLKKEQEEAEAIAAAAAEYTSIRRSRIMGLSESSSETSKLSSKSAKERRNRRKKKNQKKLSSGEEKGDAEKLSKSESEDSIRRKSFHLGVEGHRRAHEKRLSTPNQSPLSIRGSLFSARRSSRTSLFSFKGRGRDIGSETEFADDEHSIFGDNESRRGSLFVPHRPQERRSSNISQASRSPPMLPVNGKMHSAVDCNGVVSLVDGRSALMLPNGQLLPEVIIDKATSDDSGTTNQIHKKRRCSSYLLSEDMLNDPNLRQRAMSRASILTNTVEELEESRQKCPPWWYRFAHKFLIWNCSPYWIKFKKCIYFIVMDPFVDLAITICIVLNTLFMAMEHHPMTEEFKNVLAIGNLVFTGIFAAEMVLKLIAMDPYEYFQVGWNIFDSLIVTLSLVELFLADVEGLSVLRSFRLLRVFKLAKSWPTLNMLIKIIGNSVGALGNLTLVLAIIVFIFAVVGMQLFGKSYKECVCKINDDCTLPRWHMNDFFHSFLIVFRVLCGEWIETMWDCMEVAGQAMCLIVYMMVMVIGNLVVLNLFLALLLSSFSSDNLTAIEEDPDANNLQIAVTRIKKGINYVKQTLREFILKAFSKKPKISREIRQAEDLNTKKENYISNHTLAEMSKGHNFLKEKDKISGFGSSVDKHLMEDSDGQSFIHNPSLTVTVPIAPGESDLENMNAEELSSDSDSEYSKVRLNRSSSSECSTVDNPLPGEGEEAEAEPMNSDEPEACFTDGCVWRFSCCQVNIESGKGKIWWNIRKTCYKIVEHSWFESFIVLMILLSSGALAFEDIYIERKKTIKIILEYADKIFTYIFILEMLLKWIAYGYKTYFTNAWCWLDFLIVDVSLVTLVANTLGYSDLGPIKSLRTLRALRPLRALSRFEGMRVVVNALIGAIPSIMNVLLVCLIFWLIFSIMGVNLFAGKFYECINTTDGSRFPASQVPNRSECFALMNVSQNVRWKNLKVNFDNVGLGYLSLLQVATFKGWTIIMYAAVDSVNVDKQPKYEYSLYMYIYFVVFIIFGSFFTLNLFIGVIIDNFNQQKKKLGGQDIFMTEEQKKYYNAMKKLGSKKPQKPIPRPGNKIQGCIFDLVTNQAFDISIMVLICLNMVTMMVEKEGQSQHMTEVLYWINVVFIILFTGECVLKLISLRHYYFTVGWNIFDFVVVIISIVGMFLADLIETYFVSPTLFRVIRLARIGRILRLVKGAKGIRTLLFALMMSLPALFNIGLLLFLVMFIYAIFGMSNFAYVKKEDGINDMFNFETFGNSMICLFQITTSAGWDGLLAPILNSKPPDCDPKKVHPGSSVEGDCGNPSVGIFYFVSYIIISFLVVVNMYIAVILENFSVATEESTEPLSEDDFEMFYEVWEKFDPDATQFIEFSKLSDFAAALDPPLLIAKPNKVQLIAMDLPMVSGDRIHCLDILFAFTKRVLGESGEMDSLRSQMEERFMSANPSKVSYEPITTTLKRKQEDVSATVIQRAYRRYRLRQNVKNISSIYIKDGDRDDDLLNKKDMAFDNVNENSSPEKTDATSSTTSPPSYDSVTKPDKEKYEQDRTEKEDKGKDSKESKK
T4 sequence (P11712 whole entry): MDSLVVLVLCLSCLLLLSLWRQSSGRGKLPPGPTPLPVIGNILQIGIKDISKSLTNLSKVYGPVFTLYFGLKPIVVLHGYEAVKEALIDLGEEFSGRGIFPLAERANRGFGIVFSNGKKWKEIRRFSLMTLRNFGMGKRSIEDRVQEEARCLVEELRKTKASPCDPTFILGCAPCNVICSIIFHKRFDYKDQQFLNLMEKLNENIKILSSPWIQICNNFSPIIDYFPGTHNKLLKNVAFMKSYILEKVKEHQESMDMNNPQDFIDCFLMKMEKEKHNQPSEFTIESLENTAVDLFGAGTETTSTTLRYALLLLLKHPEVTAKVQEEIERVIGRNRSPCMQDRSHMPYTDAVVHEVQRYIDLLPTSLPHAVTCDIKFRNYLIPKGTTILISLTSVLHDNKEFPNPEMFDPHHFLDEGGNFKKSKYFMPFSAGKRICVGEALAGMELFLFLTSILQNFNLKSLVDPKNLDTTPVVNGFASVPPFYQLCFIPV
T1 sequence (P33261 whole entry): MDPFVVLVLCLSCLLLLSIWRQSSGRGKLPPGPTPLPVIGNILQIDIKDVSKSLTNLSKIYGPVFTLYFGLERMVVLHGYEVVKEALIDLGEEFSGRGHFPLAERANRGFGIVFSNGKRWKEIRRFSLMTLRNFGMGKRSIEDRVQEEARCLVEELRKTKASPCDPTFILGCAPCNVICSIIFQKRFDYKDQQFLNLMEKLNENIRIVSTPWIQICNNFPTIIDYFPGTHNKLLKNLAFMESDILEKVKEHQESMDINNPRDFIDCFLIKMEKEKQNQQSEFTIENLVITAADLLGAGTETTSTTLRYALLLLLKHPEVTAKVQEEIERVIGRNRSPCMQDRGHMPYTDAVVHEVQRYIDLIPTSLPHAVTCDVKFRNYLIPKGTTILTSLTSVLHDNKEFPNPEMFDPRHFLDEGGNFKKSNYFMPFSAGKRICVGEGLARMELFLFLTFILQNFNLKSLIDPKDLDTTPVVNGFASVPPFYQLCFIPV
T3 sequence (P10635 whole entry): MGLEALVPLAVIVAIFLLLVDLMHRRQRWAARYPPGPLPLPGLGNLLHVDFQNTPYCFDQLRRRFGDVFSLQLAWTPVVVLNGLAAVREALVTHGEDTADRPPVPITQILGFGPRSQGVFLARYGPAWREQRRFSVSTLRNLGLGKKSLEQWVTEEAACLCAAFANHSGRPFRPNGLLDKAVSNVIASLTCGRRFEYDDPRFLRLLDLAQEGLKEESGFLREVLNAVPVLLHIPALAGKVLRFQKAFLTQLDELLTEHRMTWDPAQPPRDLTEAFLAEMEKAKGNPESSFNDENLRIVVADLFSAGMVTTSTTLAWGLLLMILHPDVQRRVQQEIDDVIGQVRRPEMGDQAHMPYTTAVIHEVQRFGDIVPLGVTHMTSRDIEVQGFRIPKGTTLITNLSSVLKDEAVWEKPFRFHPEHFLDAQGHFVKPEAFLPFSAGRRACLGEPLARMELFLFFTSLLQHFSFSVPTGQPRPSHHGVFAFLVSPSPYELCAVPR
T2 sequence (P08684 whole entry): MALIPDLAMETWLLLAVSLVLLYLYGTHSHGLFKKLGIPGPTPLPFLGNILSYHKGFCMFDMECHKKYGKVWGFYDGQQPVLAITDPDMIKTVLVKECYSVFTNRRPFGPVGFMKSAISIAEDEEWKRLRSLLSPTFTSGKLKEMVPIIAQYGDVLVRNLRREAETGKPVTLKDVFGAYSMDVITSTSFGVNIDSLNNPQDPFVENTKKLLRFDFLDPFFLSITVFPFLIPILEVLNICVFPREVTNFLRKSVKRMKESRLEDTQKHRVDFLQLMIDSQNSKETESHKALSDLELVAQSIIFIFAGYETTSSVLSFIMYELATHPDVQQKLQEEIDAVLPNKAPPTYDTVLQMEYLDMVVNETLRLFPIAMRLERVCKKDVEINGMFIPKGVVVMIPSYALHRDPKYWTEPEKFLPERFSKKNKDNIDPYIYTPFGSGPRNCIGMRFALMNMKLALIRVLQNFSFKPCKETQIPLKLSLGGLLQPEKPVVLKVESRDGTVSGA
CYP2C9, sequence (P11712 whole entry): as the sequence (P11712 whole entry) above
CYP2C19, sequence (P33261 whole entry): as the sequence (P33261 whole entry) above
CYP2D6, sequence (P10635 whole entry): as the sequence (P10635 whole entry) above
CYP3A4, sequence (P08684 whole entry): as the sequence (P08684 whole entry) above

Turning to `O=S(=O)(Nc1ncns1)c1cc(F)c(OC[C@@H]2CNCC[C@H]2c2ccc(Cl)cc2)cc1F`, the results for the “inhibition (INH)” value at Cytochrome P450 2C19 [1], on Cytochrome P450 3A4 [2] and against Cytochrome P450 2D6 [4] were 84%, 96% and 82%, respectively. In data set [3], the IC50 is 59 nM.

For the compound `CN1CC[C@@H](c2ccc(Cl)cc2)[C@H](COc2cc(F)c(S(=O)(=O)Nc3ncns3)cc2F)C1`, the “inhibition (INH)” value against Cytochrome P450 2C9 [5] worked out at 93%; against Cytochrome P450 2C19 [1], 71%; at Cytochrome P450 3A4 [2] it was 96%; on Cytochrome P450 2D6 [4], 69%. Besides, in data set [6] (hek293), the IC50 was > 10000 nM.

Regarding `CN1CC[C@H](c2ccc(Cl)cc2)[C@@H](COc2cc(F)c(S(=O)(=O)Nc3ncns3)cc2F)C1`, the IC50 was > 10000 nM in data set [6]; 4 nM in data set [3]; > 10000 nM at Cytochrome P450 2C19 [7]; 270 nM against Cytochrome P450 2D6 [8]; 880 nM against Cytochrome P450 2C9 [9]; 140 nM against Cytochrome P450 3A4 [10].

In the case of `O=S(=O)(Nc1ncc(F)cn1)c1cc(F)c(OC[C@H]2CNCC[C@@H]2c2ccc(Cl)cc2)cc1F`, the IC50 (in data set [6]; on Cytochrome P450 2C19 [7]; on Cytochrome P450 2D6 [8]; on Cytochrome P450 2C9 [9]; against Cytochrome P450 3A4 [10]) was > 10000 nM each time.

For `O=S(=O)(Nc1ncns1)c1cc(F)c(OC[C@@H]2CNCC[C@H]2c2ccccc2)cc1F` (relative stereo), the inhibition at 10 µM stood at 81% against CYP2C9, 81% at CYP2C19, 95% against CYP3A4 and 82% against CYP2D6. Also, the IC50 in data set [6] is > 10000 nM; in [3], 7.9 nM. Also, in the data set listed under Homo sapiens, the Ratio IC50 was > 1000.
